Assays:
PC3 cells [1] = assay: Cell death by Trypan blue exclusion; type: cell-based; details: vs vehicle, Gamitrinib 5 μM, CCCP 12.5 μM, 2-DG 25 mM
Protocol: (§1) Tumor cells were plated onto 96-well plates at 3.7×10^3/well and treated with vehicle or Gamitrinib (5 μM). After 24 h, cell viability was assessed with a 3 (4,5-dimethyl-thyazoyl-2-yl)2,5 diphenyltetrazolium bromide (MTT) colorimetric assay (24), or, alternatively, by Trypan blue exclusion and light microscopy. Data were background-subtracted relative to vehicle-treated cultures. In some experiments, tumor cell proliferation was assessed by direct cell counting and light microscopy.

PC3 cells [2] = assay: Cell proliferation by direct cell counting; type: cell-based, human; details: vs vehicle, Gamitrinib 5 μM, CCCP 12.5 μM, 2-DG 25 mM
Protocol: as §1

PC3 cells [3] = assay: Transwell cell migration; type: cell-based, human; details: Gamitrinib 5 μM, 17-AAG 5 μM, CCCP 12.5 μM, 2-DG 25 mM, rapamycin 0.1 μM, 6 h
Protocol: (§2) Various tumor cell types were treated as indicated in each experiment, suspended in 0.1% BSA/DMEM and seeded (1.6−3.2×10^3 cells/mm2, depending on the cell type) in the upper compartment of […] pore diameter BD transwells (BD). NIH3T3 conditioned medium was placed in the lower compartment as a chemoattractant. After 6-18 h incubations at 37° C., the transwell membranes were recovered and cells on the upper side (non-migratory) were wiped off the surface. Cells on the lower side of the membrane were fixed in methanol, rinsed in water and mounted on glass slides with Vectashield medium containing DAPI (Vector Laboratories). Migrated cells on each membrane were counted by fluorescence microscopy in 5 different fields. For cell invasion assays, transwell membranes were coated with Matrigel and processed as described above.

PC3 cells [4] = assay: Matrigel-coated transwell cell invasion; type: cell-based, human; details: Gamitrinib 5 μM, 17-AAG 5 μM, CCCP 12.5 μM, 2-DG 25 mM, 16 h
Protocol: as §2

[5] = tested on: Focal Adhesion Kinase (FAK); assay: Western blotting, FAK phosphorylation; type: cell-based, human; details: tumor cells (PC3); Gamitrinib 5 μM, CCCP 12.5 μM, rapamycin 0.1 μM
Protocol: (§3) Protein lysates were prepared in RIPA buffer containing 150 mM NaCl, 1.0% Triton X-100, 0.5% sodium deoxycholate, 0.1% SDS, 50 mM Tris, pH 8.0, in the presence of EDTA-free protease inhibitor cocktail (Roche) and phosphatase inhibitor cocktail 2 and 3 (Sigma Aldrich). Equal amounts of protein lysates were separated by SDS gel electrophoresis, transferred to PVDF membranes and incubated with primary antibodies of various specificities. Protein bands were detected by chemiluminescence, as described (21).

4EBP1 = assay: Western blotting, 4EBP1 phosphorylation; type: cell-based, human; details: PC3; rapamycin 0.1 μM
Protocol: as §3

ULK1 = assay: Western blotting, ULK1 phosphorylation and level; type: cell-based, human; details: for ULK1 phosphorylation on Ser555: Gamitrinib 5 μM (within 1-2 h); for ULK1 phosphorylation on Ser555 / ULK1 phosphorylation on Ser757: metformin 5 mM 6 h, 17-AAG 5 μM; for ULK1 phosphorylation on Ser757: Gamitrinib 5 μM
Protocol: as §3

AMPK = assay: Western blotting, AMPK and ACC phosphorylation; type: cell-based, human; details: PC3; Gamitrinib 5 μM time course, metformin 5 mM 6 h, 17-AAG 5 μM time course
Protocol: as §3

Raptor = assay: Western blotting, Raptor phosphorylation; type: cell-based, human; details: PC3; Gamitrinib 5 μM, metformin 5 mM 6 h, 17-AAG 5 μM
Protocol: as §3

O=CC[C@@H](O)[C@H](O)[C@H](O)CO [2-DG, 2-deoxy-D-glucose]
cell death by Trypan blue exclusion (PC3 cells [1]): did not affect | tumor cell proliferation (PC3 cells [2]): did not affect cell proliferation | tumor cell migration (PC3 cells [3]): suppressed tumor cell migration | tumor cell invasion (PC3 cells [4]): suppressed

N#CC(C#N)=NNc1cccc(Cl)c1 [CCCP, carbonyl cyanide 3-chlorophenylhydrazone]
cell death by Trypan blue exclusion (PC3 cells [1]): did not affect | tumor cell proliferation (PC3 cells [2]): did not affect cell proliferation | tumor cell migration (PC3 cells [3]): suppressed tumor cell migration | tumor cell invasion (PC3 cells [4]): suppressed | FAK phosphorylation on Tyr397 and Tyr925 [5]: abolished FAK phosphorylation

CO[C@H]1C[C@@H]2CC[C@@H](C)[C@@](O)(O2)C(=O)C(=O)N2CCCC[C@H]2C(=O)O[C@H]([C@H](C)C[C@@H]2CC[C@@H](O)[C@H](OC)C2)CC(=O)[C@H](C)/C=C(\C)[C@@H](O)[C@@H](OC)C(=O)[C@H](C)C[C@H](C)/C=C/C=C/C=C/1C [rapamycin, Rapamycin]
4EBP1 phosphorylation (4EBP1): suppressed 4EBP1 phosphorylation | tumor cell migration (PC3 cells [3]): no effect | FAK phosphorylation on Tyr397 and Tyr925 [5]: no effect

C=CCNC1=C2C[C@@H](C)C[C@H](OC)[C@H](O)[C@@H](C)/C=C(\C)[C@H](OC(N)=O)[C@@H](OC)/C=C\C=C(/C)C(=O)NC(=CC1=O)C2=O [17-AAG, 17-allylamino demethoxygeldanamycin]
ULK1 level after longer exposure (ULK1; 24-h exposure of tumor cells, data not shown): caused ULK1 degradation | ULK1 phosphorylation on Ser555 (ULK1; PC3): equally reduced | ULK1 phosphorylation on Ser757 (ULK1; PC3): equally reduced | total level of ULK1 (ULK1; PC3, time points of the Western blot experiment): not affected | tumor cell migration (PC3 cells [3]): did not affect tumor cell migration or invasion | AMPK and ACC phosphorylation (AMPK): did not affect AMPK or ACC phosphorylation | Raptor phosphorylation on Ser792 (Raptor): remained unphosphorylated | tumor cell invasion (PC3 cells [4]): did not affect tumor cell migration or invasion

CN(C)C(=N)N=C(N)N [metformin]
ULK1 phosphorylation on Ser555 (ULK1; PC3): increased ULK1 phosphorylation on Ser555 | ULK1 phosphorylation on Ser757 (ULK1; PC3): decreased phosphorylation of ULK1 on Ser757 | AMPK and ACC phosphorylation (AMPK): activation of AMPK and ACC | Raptor phosphorylation on Ser792 (Raptor): phosphorylation of Raptor on Ser792

Source: US20140271667A1, “Methods and Compositions for Neoadjuvant Therapy” (The Wistar Institute of Anatomy and Biology, priority 2013, published 2014)
